Where two headings read alike, the source gives them in different places.
Key:
[1] = Rat PK study: zoledronic acid in plasma after IV, oral gavage or intraduodenal dosing (LC/MS/MS); assay type: in vivo; settings: male, Sprague-Dawley, read-out: Average plasma concentration of 3 rats
Description: (§1) This can be attributed to the fact that both animals have historically been used in the safety evaluation and PK screening studies and are recommended by appropriate regulatory agencies. […] Additional tests included ID administration in rats and administration of enteric coated capsules in dogs.
(§2) USA. Some animals have surgical catheters (jugular vein and intraduodenum) were implanted to the animals prior to the studies. Beagle dogs from Marshall Farms, N.Y., USA, weighing from (9-12 kg) were used in the studies presented herein. Surgical catheters (jugular vein) were implanted prior to the studies.
The dose of each rat was calculated on a per rat basis (not on an average weight of all the rats in the lot). • ii. Oral gavage administration: solid suspensions were administered. The dose of each rat was calculated on a per rat basis (not on an average weight of all the rats in the lot). […] Duodenal cannula administration: solid suspensions were administered. The dose of each rat was calculated on a per rat basis (not on an average weight of all the rats in the lot).
Two major groups of animals were selected for the study. • Group 1 consists of rat studies. […] Details of Group 1 Rat Dosing
Plasma was collected after centrifugation at 13,000 rpm for 5 min at 4° C. and immediately frozen and stored at −60 to −80° C. until analysis.

[2] = Dog PK study: zoledronic acid in serum after IV or oral capsule dosing, enteric or non-enteric coated, with or without excess coformer (LC/MS/MS); assay type: in vivo, Beagle dogs; settings: beagle
Description: as §1, §2
The dose volume of each dog was adjusted based upon the average weight of the dog. • ii. […]
Blood samples were placed without the use of an anticoagulant and allowed to sit at room temperature for approximately 30 minutes. Samples were then centrifuged at a temperature of 4° C., at a speed of 13,000 rpm, for 5 minutes. Serum was collected and split into two aliquots and stored frozen (−80° C.) until analysis.
In this study, capsules of particulate materials (zoledronic:DL-lysine:water complex and excess pure DL-lysine).

[3] = other: intraduodenal (ID, duodenal cannula), 5 mg/kg

## O=P(O)(O)C(O)(Cn1ccnc1)P(=O)(O)O [Zoledronic acid, (1-hydroxy-2-imidazol-1-yl-1-phosphono-ethyl)phosphonic acid]
[1]; iv, 0.5 mg/kg
  concentration at 0.083333 hour: 3250 ng/mL
  concentration at 0.25 hour: 1950 ng/mL
  concentration at 0.5 hour: 1130 ng/mL
  concentration at 1 hour: 404 ng/mL
  concentration at 2 hour: 113 ng/mL
  concentration at 4 hour: 30.5 ng/mL
  concentration at 8 hour: 10.7 ng/mL
  concentration at 24 hour: 2.98 ng/mL
[1]; [3]
  concentration at 0.25 hour: 146 ng/mL
  concentration at 0.5 hour: 110 ng/mL
  concentration at 1 hour: 47.4 ng/mL
  concentration at 2 hour: 12.9 ng/mL
  concentration at 4 hour: 3.85 ng/mL
  concentration at 8 hour: 0.97 ng/mL
  concentration at 24 hour: 0 ng/mL
[1]; po, 5 mg/kg
  concentration at 0.25 hour: 330 ng/mL
  concentration at 0.5 hour: 267 ng/mL
  concentration at 1 hour: 139 ng/mL
  concentration at 2 hour: 47.7 ng/mL
  concentration at 4 hour: 11.8 ng/mL
  concentration at 8 hour: 2 ng/mL
  concentration at 24 hour: 0 ng/mL
[2]; Leg 37: 63.1 mg Zoledronic, DL-lysine, and water complex with 1965.7 mg DL-lysine monohydrate, PO gelatin capsules
  bioavailability: > 8%
[2]; intravenous, 0.12 mg/kg, Leg 18, 15 min IV infusion 0.12 mg/kg, saline solution, Time 0 hour (pre-dose), read-out: Average serum concentration of 5 dogs
  concentration at 0 h: 0 ng/mL
[2]; intravenous, 0.12 mg/kg, Leg 18, 15 min IV infusion 0.12 mg/kg, saline solution, Time 0.0833 hour, read-out: Average serum concentration of 5 dogs
  concentration at 5 min: 309 ng/mL
[2]; intravenous, 0.12 mg/kg, Leg 18, 15 min IV infusion 0.12 mg/kg, saline solution, Time 0.1667 hour, read-out: Average serum concentration of 5 dogs
  concentration at 10 min: 525 ng/mL
[2]; intravenous, 0.12 mg/kg, Leg 18, 15 min IV infusion 0.12 mg/kg, saline solution, Time 0.25 hour, read-out: Average serum concentration of 5 dogs
  concentration at 0.25 h: 717 ng/mL
[2]; intravenous, 0.12 mg/kg, Leg 18, 15 min IV infusion 0.12 mg/kg, saline solution, Time 0.4167 hour, read-out: Average serum concentration of 5 dogs
  concentration at 25 min: 392 ng/mL
[2]; intravenous, 0.12 mg/kg, Leg 18, 15 min IV infusion 0.12 mg/kg, saline solution, Time 0.5 hour, read-out: Average serum concentration of 5 dogs
  concentration at 0.5 h: 323 ng/mL
[2]; intravenous, 0.12 mg/kg, Leg 18, 15 min IV infusion 0.12 mg/kg, saline solution, Time 0.75 hour, read-out: Average serum concentration of 5 dogs
  concentration at 0.75 h: 202 ng/mL
[2]; intravenous, 0.12 mg/kg, Leg 18, 15 min IV infusion 0.12 mg/kg, saline solution, Time 1 hour, read-out: Average serum concentration of 5 dogs
  concentration at 1 h: 133 ng/mL
[2]; intravenous, 0.12 mg/kg, Leg 18, 15 min IV infusion 0.12 mg/kg, saline solution, Time 1.25 hour, read-out: Average serum concentration of 5 dogs
  concentration at 1.25 h: 93.2 ng/mL
[2]; intravenous, 0.12 mg/kg, Leg 18, 15 min IV infusion 0.12 mg/kg, saline solution, Time 1.5 hour, read-out: Average serum concentration of 5 dogs
  concentration at 1.5 h: 69.1 ng/mL
[2]; intravenous, 0.12 mg/kg, Leg 18, 15 min IV infusion 0.12 mg/kg, saline solution, Time 2 hour, read-out: Average serum concentration of 5 dogs
  concentration at 2 h: 38.4 ng/mL
[2]; intravenous, 0.12 mg/kg, Leg 18, 15 min IV infusion 0.12 mg/kg, saline solution, Time 4 hour, read-out: Average serum concentration of 5 dogs
  concentration at 4 h: 9.14 ng/mL
[2]; intravenous, 0.12 mg/kg, Leg 18, 15 min IV infusion 0.12 mg/kg, saline solution, Time 8 hour, read-out: Average serum concentration of 5 dogs
  concentration at 8 h: 3.24 ng/mL
[2]; intravenous, 0.12 mg/kg, Leg 18, 15 min IV infusion 0.12 mg/kg, saline solution, Time 24 hour, read-out: Average serum concentration of 5 dogs
  concentration at 24 h: 1.21 ng/mL
[2]; iv, 0.05 mg/kg, zoledronic acid in dog serum, Leg 1, IV 0.05 mg/kg, saline solution, Time 0.0333 hour, read-out: Average serum concentration of 5 dogs
  concentration at 0.0333 hour: 413 ng/mL
[2]; iv, 0.05 mg/kg, zoledronic acid in dog serum, Leg 1, IV 0.05 mg/kg, saline solution, Time 0.0833 hour, read-out: Average serum concentration of 5 dogs
  concentration at 0.0833 hour: 312 ng/mL
[2]; iv, 0.05 mg/kg, zoledronic acid in dog serum, Leg 1, IV 0.05 mg/kg, saline solution, Time 0.1667 hour, read-out: Average serum concentration of 5 dogs
  concentration at 0.1667 hour: 229 ng/mL
[2]; iv, 0.05 mg/kg, zoledronic acid in dog serum, Leg 1, IV 0.05 mg/kg, saline solution, Time 0.25 hour, read-out: Average serum concentration of 5 dogs
  concentration at 0.25 hour: 179 ng/mL
[2]; iv, 0.05 mg/kg, zoledronic acid in dog serum, Leg 1, IV 0.05 mg/kg, saline solution, Time 0.75 hour, read-out: Average serum concentration of 5 dogs
  concentration at 0.75 hour: 75.9 ng/mL
[2]; iv, 0.05 mg/kg, zoledronic acid in dog serum, Leg 1, IV 0.05 mg/kg, saline solution, Time 1 hour, read-out: Average serum concentration of 5 dogs
  concentration at 1 hour: 56.1 ng/mL
[2]; iv, 0.05 mg/kg, zoledronic acid in dog serum, Leg 1, IV 0.05 mg/kg, saline solution, Time 1.5 hour, read-out: Average serum concentration of 5 dogs
  concentration at 1.5 hour: 30.4 ng/mL
[2]; iv, 0.05 mg/kg, zoledronic acid in dog serum, Leg 1, IV 0.05 mg/kg, saline solution, Time 2 hour, read-out: Average serum concentration of 5 dogs
  concentration at 2 hour: 17.6 ng/mL
[2]; iv, 0.05 mg/kg, zoledronic acid in dog serum, Leg 1, IV 0.05 mg/kg, saline solution, Time 4 hour, read-out: Average serum concentration of 5 dogs
  concentration at 4 hour: 4.29 ng/mL
[2]; iv, 0.05 mg/kg, zoledronic acid in dog serum, Leg 1, IV 0.05 mg/kg, saline solution, Time 8 hour, read-out: Average serum concentration of 5 dogs
  concentration at 8 hour: 1.13 ng/mL
[2]; iv, 0.05 mg/kg, zoledronic acid in dog serum, Leg 1, IV 0.05 mg/kg, saline solution, Time 24 hour, read-out: Average serum concentration of 5 dogs
  concentration at 24 hour: 0 ng/mL
[2]; iv, 0.05 mg/kg, zoledronic acid in dog serum, Leg 1, IV 0.05 mg/kg, saline solution, Time 48 hour, read-out: Average serum concentration of 5 dogs
  concentration at 48 hour: 0 ng/mL
[2]; iv, 0.12 mg/kg, Leg 38, 0.12 mg/kg IV, saline solution, 0 h, read-out: Average serum concentration of 4 dogs
  concentration at 0 h: 0 ng/mL
[2]; iv, 0.12 mg/kg, Leg 38, 0.12 mg/kg IV, saline solution, 5 min, read-out: Average serum concentration of 4 dogs
  concentration at 5 min: 288 ng/mL
[2]; iv, 0.12 mg/kg, Leg 38, 0.12 mg/kg IV, saline solution, 10 min, read-out: Average serum concentration of 4 dogs
  concentration at 10 min: 542 ng/mL
[2]; iv, 0.12 mg/kg, Leg 38, 0.12 mg/kg IV, saline solution, 0.25 h, read-out: Average serum concentration of 4 dogs
  concentration at 0.25 h: 711 ng/mL
[2]; iv, 0.12 mg/kg, Leg 38, 0.12 mg/kg IV, saline solution, 20 min, read-out: Average serum concentration of 4 dogs
  concentration at 20 min: 529 ng/mL
[2]; iv, 0.12 mg/kg, Leg 38, 0.12 mg/kg IV, saline solution, 25 min, read-out: Average serum concentration of 4 dogs
  concentration at 25 min: 406 ng/mL
[2]; iv, 0.12 mg/kg, Leg 38, 0.12 mg/kg IV, saline solution, 0.5 h, read-out: Average serum concentration of 4 dogs
  concentration at 0.5 h: 358 ng/mL
[2]; iv, 0.12 mg/kg, Leg 38, 0.12 mg/kg IV, saline solution, 0.75 h, read-out: Average serum concentration of 4 dogs
  concentration at 0.75 h: 240 ng/mL

Reference: patent US9169279B2, “Crystallization method and bioavailability” (THAR PHARMACEUTICALS, INC., priority 2009, dated 2015)
